# Measured values taken from patent US20150307938A1, “METHOD TO IDENTIFY A NOVEL CLASS OF IMMUNOLOGIC ADJUVANTS” (Lancell, L.L.C., priority 2011, published 2015).
# Marks after values point to notes of the source that are not given here.
# System: full thickness skin
# Experiment: Whole genome array of skin gene expression after topical DBP (time course)
# Type: in vivo, C57BL/6J mice
# Experimental: Mice: C57BL/6J female mice obtained from The Jackson Laboratory were used between 8 and 12 weeks of age.
# Treatment: Mice were untreated or treated topically on the dorsal side of each ear with […] of dibutylphthalate (DBP). At the designated time points after treatment, the animals were euthanized and the ears washed with 70% isopropanol. Full thickness skin was obtained from the dorsal side of both ears and placed immediately in liquid nitrogen. The time between euthanasia and placement of both skin samples in liquid nitrogen was less than 1 minute. Each sample for RNA extraction contained two dorsal ear skin samples obtained from a single mouse both of whose ears received the same treatment.
# RNA Extraction: While in liquid nitrogen, the skin was pulverized with a motorized mortar and pestle (CryoGrinder), transferred by inversion of the mortar directly into 1.5 ml cryogenic vials (Nalgene) and stored in liquid nitrogen until RNA extraction. Total RNA from both ears was extracted by homogenization (Pro200) in TRIzol Reagent (Invitrogen) with 7.5 μg of RNase-free glycogen added to the mixture, according to the manufacturer's directions. The RNA was purified on a solid phase RNeasy MinElute Cleanup column (Qiagen) and eluted with 17 μL of RNase-free water. The samples were stored at −20° C. until use.
# Quantification of RNA: RNA yields were quantified by UV absorption using a NanoDrop NG-1000 spectrophotometer, where 1 AU 260 equals 40 μg RNA/ml. Purity was estimated by the 260 and 280 nm absorbance ratio; values between 1.7 and 2.1 were considered acceptable.
# Assessment of RNA Quality: The quality of sample RNA was assessed using a RNA 6000 LABCHIP Kit on an Agilent 2100 Bioanalyzer. The Bioanalyzer determines the integrity/purity of the RNA samples and permits the screening of total and mRNA sample degradation and ribosomal RNA contamination. An RNA 6000 ladder was also loaded on a specified well and used as a reference for data analysis and a built-in quality control measure. The quality and integrity of the RNA was determined through visual inspection of each electropherogram. In general, only samples with a RIN (RNA integrity number) of 7 or greater, as determined by the Bioanalyzer, were used for gene arrays. This quality control analysis was repeated following the labeling procedure to ensure that the probes were efficiently labeled and had the correct size before hybridization to the chips. All samples that were run on genome wide arrays were obtained as independent duplicates from two individual mice.
# Microarray Data Interpretation: Gene expression was compared between untreated and treated total RNA samples. “Transition” data, which represent the change in expression level for a given gene, are presented as a “weighted difference.” Changes in gene expression level were considered to be significant when the adjusted p values were less than […]. The “gene expression signature” arbitrarily includes only those genes that were transcribed with a weighted increase of 2.0 or greater, which was sustained over the subsequent time points tested.
# The weighted difference is a metric that takes into account both the variability between different time-points and the variability between replicates at the same time-point. The calculations are performed for each time-point transition, i.e., 30 minutes vs. 1 hour, 1 hour vs. 2 hours, etc. There are two steps to the calculation: the calculation of a modified Euclidean difference between the two time-points, and the calculation of the Euclidean difference between the replicates within each time-point. The first measure is an unweighted difference, while the final metric given in the spreadsheet “weights” this difference by taking into account the second measure.
# In a Euclidean difference calculation, each data point is considered as a vector in a multi-dimensional space, and the actual straight-line distance between the data points is calculated. […]
# [1] = First 15 min after DBP application
compound,measurement,setting,value
"CCCCOC(=O)c1ccccc1C(=O)OCCCC [DBP, dibutylphthalate]","DBP Unique genes, number",2 hr,42
same,"DBP-Induced genes (≧2x Increased Expression), number",2 hr,112
same,"TLR-Induced among DBP-induced genes, number",2 hr,70^#
same,Acot5 Change in Gene Expression (Weighted Difference),2 hr to 4 hr Transition,2.191
same,Akr1c18 Change in Gene Expression (Weighted Difference),2 hr to 4 hr Transition,−0.08563
same,Areg Change in Gene Expression (Weighted Difference),2 hr to 4 hr Transition,3.401
same,Atp2c2 Change in Gene Expression (Weighted Difference),2 hr to 4 hr Transition,−0.002189
same,Btg2 Change in Gene Expression (Weighted Difference),2 hr to 4 hr Transition,1.009
same,Ccr4 Change in Gene Expression (Weighted Difference),2 hr to 4 hr Transition,0.03996
same,Cdh10 Change in Gene Expression (Weighted Difference),2 hr to 4 hr Transition,−0.008005
same,Cish Change in Gene Expression (Weighted Difference),2 hr to 4 hr Transition,0.7204
same,Cox17 Change in Gene Expression (Weighted Difference),2 hr to 4 hr Transition,−0.1255
same,Ctgf Change in Gene Expression (Weighted Difference),2 hr to 4 hr Transition,2.29
same,Cysltr1 Change in Gene Expression (Weighted Difference),2 hr to 4 hr Transition,−0.8049
same,Ddx21 Change in Gene Expression (Weighted Difference),2 hr to 4 hr Transition,2.413
same,Dlx4 Change in Gene Expression (Weighted Difference),2 hr to 4 hr Transition,3.05
same,Dusp14 Change in Gene Expression (Weighted Difference),2 hr to 4 hr Transition,2.291
same,Egr1 Change in Gene Expression (Weighted Difference),2 hr to 4 hr Transition,2.348
same,Egr2 Change in Gene Expression (Weighted Difference),2 hr to 4 hr Transition,0.5934
same,Fam115c Change in Gene Expression (Weighted Difference),2 hr to 4 hr Transition,2.163
same,Fbxo42 Change in Gene Expression (Weighted Difference),2 hr to 4 hr Transition,2.267
same,Fosl1 Change in Gene Expression (Weighted Difference),2 hr to 4 hr Transition,4.432
same,Frk Change in Gene Expression (Weighted Difference),2 hr to 4 hr Transition,−0.0494
same,Gart Change in Gene Expression (Weighted Difference),2 hr to 4 hr Transition,5.268
same,Gbp8 Change in Gene Expression (Weighted Difference),2 hr to 4 hr Transition,−0.04223
same,Gem Change in Gene Expression (Weighted Difference),2 hr to 4 hr Transition,1.546
same,Gimap7 Change in Gene Expression (Weighted Difference),2 hr to 4 hr Transition,0.03205
same,Has1 Change in Gene Expression (Weighted Difference),2 hr to 4 hr Transition,2.54
same,Ier3 Change in Gene Expression (Weighted Difference),2 hr to 4 hr Transition,4.521
same,Il10 Change in Gene Expression (Weighted Difference),2 hr to 4 hr Transition,2.932
same,Il10ra Change in Gene Expression (Weighted Difference),2 hr to 4 hr Transition,0.1254
same,Il20 Change in Gene Expression (Weighted Difference),2 hr to 4 hr Transition,2.876
same,Irf4 Change in Gene Expression (Weighted Difference),2 hr to 4 hr Transition,3.715
same,Jun Change in Gene Expression (Weighted Difference),2 hr to 4 hr Transition,0.9971
same,Junb Change in Gene Expression (Weighted Difference),2 hr to 4 hr Transition,0.9119
same,Kcnk1 Change in Gene Expression (Weighted Difference),2 hr to 4 hr Transition,32.8
same,LOC100046066 Change in Gene Expression (Weighted Difference),2 hr to 4 hr Transition,−0.1464
same,LOC100046410 Change in Gene Expression (Weighted Difference),2 hr to 4 hr Transition,2.134
same,Lcn5 Change in Gene Expression (Weighted Difference),2 hr to 4 hr Transition,3.183
same,Madcam1 Change in Gene Expression (Weighted Difference),2 hr to 4 hr Transition,−0.01081
same,Maml1 Change in Gene Expression (Weighted Difference),2 hr to 4 hr Transition,3.564
same,Map3k11 Change in Gene Expression (Weighted Difference),2 hr to 4 hr Transition,2.249
same,Med17 Change in Gene Expression (Weighted Difference),2 hr to 4 hr Transition,−2.259E−05
same,Mkks Change in Gene Expression (Weighted Difference),2 hr to 4 hr Transition,−0.2406
same,Mndal Change in Gene Expression (Weighted Difference),2 hr to 4 hr Transition,0.09548
same,Mtap7d1 Change in Gene Expression (Weighted Difference),2 hr to 4 hr Transition,6.99
same,Myc Change in Gene Expression (Weighted Difference),2 hr to 4 hr Transition,1.296
same,Myh3 Change in Gene Expression (Weighted Difference),2 hr to 4 hr Transition,8.012
same,Myl2 Change in Gene Expression (Weighted Difference),2 hr to 4 hr Transition,12.2
same,N6amt2 Change in Gene Expression (Weighted Difference),2 hr to 4 hr Transition,−0.02824
same,Nedd4l Change in Gene Expression (Weighted Difference),2 hr to 4 hr Transition,2.067
same,Nr4a1 Change in Gene Expression (Weighted Difference),2 hr to 4 hr Transition,4.572
same,P2ry1 Change in Gene Expression (Weighted Difference),2 hr to 4 hr Transition,−0.2494
same,Palmd Change in Gene Expression (Weighted Difference),2 hr to 4 hr Transition,2.134
same,Prf1 Change in Gene Expression (Weighted Difference),2 hr to 4 hr Transition,−0.1682
same,Prss23 Change in Gene Expression (Weighted Difference),2 hr to 4 hr Transition,6.983
same,Pxmp4 Change in Gene Expression (Weighted Difference),2 hr to 4 hr Transition,3.362
same,Rai12 Change in Gene Expression (Weighted Difference),2 hr to 4 hr Transition,6.683
same,Rassf5 Change in Gene Expression (Weighted Difference),2 hr to 4 hr Transition,2.519
same,Sik1 Change in Gene Expression (Weighted Difference),2 hr to 4 hr Transition,1.009
same,Slc25a25 Change in Gene Expression (Weighted Difference),2 hr to 4 hr Transition,2.285
same,Slc39a8 Change in Gene Expression (Weighted Difference),2 hr to 4 hr Transition,2.101
same,Tiparp Change in Gene Expression (Weighted Difference),2 hr to 4 hr Transition,2.281
same,Tmed3 Change in Gene Expression (Weighted Difference),2 hr to 4 hr Transition,−0.1013
same,Tmem51 Change in Gene Expression (Weighted Difference),2 hr to 4 hr Transition,6.104
same,Tnfaip8l1 Change in Gene Expression (Weighted Difference),2 hr to 4 hr Transition,2.28
same,Tnip1 Change in Gene Expression (Weighted Difference),2 hr to 4 hr Transition,3.267
same,Tnni1 Change in Gene Expression (Weighted Difference),2 hr to 4 hr Transition,3.47
same,Tnnt1 Change in Gene Expression (Weighted Difference),2 hr to 4 hr Transition,2.946
same,Trib1 Change in Gene Expression (Weighted Difference),2 hr to 4 hr Transition,2.432
same,Zfp36 Change in Gene Expression (Weighted Difference),2 hr to 4 hr Transition,2.638
same,Zfp326 Change in Gene Expression (Weighted Difference),2 hr to 4 hr Transition,2.164
same,% Shared (DBP-induced genes also TLR-induced),4 hr,64%
same,"DBP Unique genes, number",4 hr,13
same,"DBP-Induced genes (≧2x Increased Expression), number",4 hr,36
same,"TLR-Induced among DBP-induced genes, number",4 hr,23^#
same,Acot5 Change in Gene Expression (Weighted Difference),[1],2.251
same,Akr1c18 Change in Gene Expression (Weighted Difference),[1],3.655
same,Atp2c2 Change in Gene Expression (Weighted Difference),[1],5.815
same,Btg2 Change in Gene Expression (Weighted Difference),[1],61.87
same,Ccr4 Change in Gene Expression (Weighted Difference),[1],2.16
same,Cdh10 Change in Gene Expression (Weighted Difference),[1],2.487
same,Cish Change in Gene Expression (Weighted Difference),[1],2.011
same,Cox17 Change in Gene Expression (Weighted Difference),[1],2.318
same,Cysltr1 Change in Gene Expression (Weighted Difference),[1],7.656
same,Egr1 Change in Gene Expression (Weighted Difference),[1],3.561
same,Egr2 Change in Gene Expression (Weighted Difference),[1],2.003
same,Frk Change in Gene Expression (Weighted Difference),[1],6.498
same,Gbp8 Change in Gene Expression (Weighted Difference),[1],4.073
same,Gem Change in Gene Expression (Weighted Difference),[1],2.491
same,Gimap7 Change in Gene Expression (Weighted Difference),[1],4.789
same,Ier3 Change in Gene Expression (Weighted Difference),[1],5.581
same,Il10ra Change in Gene Expression (Weighted Difference),[1],2.325
same,Jun Change in Gene Expression (Weighted Difference),[1],6.095
same,Junb Change in Gene Expression (Weighted Difference),[1],4.5
same,LOC100046066 Change in Gene Expression (Weighted Difference),[1],2.503
same,Madcam1 Change in Gene Expression (Weighted Difference),[1],4.39
same,Med17 Change in Gene Expression (Weighted Difference),[1],3.949
same,Mkks Change in Gene Expression (Weighted Difference),[1],11.97
same,Mndal Change in Gene Expression (Weighted Difference),[1],2.311
same,Myc Change in Gene Expression (Weighted Difference),[1],24.16
same,N6amt2 Change in Gene Expression (Weighted Difference),[1],3.347
same,Nr4a1 Change in Gene Expression (Weighted Difference),[1],5.48
same,P2ry1 Change in Gene Expression (Weighted Difference),[1],2.279
same,Prf1 Change in Gene Expression (Weighted Difference),[1],7.177
same,Sik1 Change in Gene Expression (Weighted Difference),[1],3.072
same,Slc39a8 Change in Gene Expression (Weighted Difference),[1],3.193
same,Tmed3 Change in Gene Expression (Weighted Difference),[1],2.37
same,Zfp36 Change in Gene Expression (Weighted Difference),[1],4.19
same,% Shared (DBP-induced genes also TLR-induced),Total,64%
same,"DBP Unique genes, number",Total,200
same,"DBP-Induced genes (≧2x Increased Expression), number",Total,561 (33*)
same,"TLR-Induced among DBP-induced genes, number",Total,361 (340^#)
